Reference: ChEMBL document CHEMBL1201862, “PubChem BioAssay data set” (2004)
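Five compound concentrations were applied to cells in 96-well plates for 48 hours; endpoints were derived by simple linear interpolation of the resulting dose-response curve. GI50 marks 50% less growth.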 Active and inactive are the calls of the source. No stated cut-off is given here; in the data, active = GI50 up to about 1.1 µM and inactive = higher.

Key:
Test in all cases: NCI-60 cell line screen, 48 h
ACHN = test system: ACHN
CAKI-1 = test system: CAKI-1
CCRF-CEM = test system: CCRF-CEM
COLO 205 = test system: COLO 205
DMS-114 = test system: DMS-114
DMS-273 = test system: DMS-273
EKVX = test system: EKVX
HCC 2998 = test system: HCC 2998
HCT-116 = test system: HCT-116
HCT-15 = test system: HCT-15
HL-60 = test system: HL-60
HOP-62 = test system: HOP-62
HOP-92 = test system: HOP-92
IGROV-1 = test system: IGROV-1
K562 = test system: K562
KM12 = test system: KM12
LOX IMVI = test system: LOX IMVI
LXFL 529 = test system: LXFL 529
M14 = test system: M14
M19-MEL = test system: M19-MEL
MOLT-4 = test system: MOLT-4
Malme-3M = test system: Malme-3M
NCI-H522 = test system: NCI-H522
OVCAR-3 = test system: OVCAR-3
OVCAR-4 = test system: OVCAR-4
RPMI-8226 = test system: RPMI-8226
SF-268 = test system: SF-268
SK-MEL-2 = test system: SK-MEL-2
SK-OV-3 = test system: SK-OV-3
SN12C = test system: SN12C
SNB-75 = test system: SNB-75
SR = test system: SR
SW-620 = test system: SW-620
UACC-62 = test system: UACC-62
XF498 = test system: XF498
786-0 = test system: 786-0
A498 = test system: A498
A549 = test system: A549
DLD-1 = test system: DLD-1
HOP-18 = test system: HOP-18
HT-29 = test system: HT-29
KM-20L2 = test system: KM-20L2
NCI-H23 = test system: NCI-H23
NCI-H460 = test system: NCI-H460
OVCAR-5 = test system: OVCAR-5
OVCAR-8 = test system: OVCAR-8
SF-295 = test system: SF-295
SF-539 = test system: SF-539
SK-MEL-28 = test system: SK-MEL-28
SK-MEL-5 = test system: SK-MEL-5
SNB-19 = test system: SNB-19
SNB-78 = test system: SNB-78
TK-10 = test system: TK-10
U-251 = test system: U-251
UACC-257 = test system: UACC-257
UO-31 = test system: UO-31
NCI-H226 = test system: NCI-H226
RXF 393 = test system: RXF 393

## O=c1n(CCCCn2c(=O)n(CC3CS3)c3ccccc32)c2ccccc2n1CC1CS1 (stereo not drawn)
ACHN
  GI50: 25.1 µM (inactive)
CAKI-1
  GI50: 17.3 µM (inactive)
CCRF-CEM
  GI50: 17.1 µM (inactive)
COLO 205
  GI50: 19 µM (inactive)
DMS-114
  GI50: > 10 µM (inactive)
DMS-273
  GI50: 19.2 µM (inactive)
EKVX
  GI50: 24.3 µM (inactive)
HCC 2998
  GI50: 19.7 µM (inactive)
HCT-116
  GI50: 18.7 µM (inactive)
HCT-15
  GI50: 18.2 µM
HL-60
  GI50: 2.17 µM (inactive)
HOP-62
  GI50: 22.3 µM (inactive)
HOP-92
  GI50: 23.9 µM (inactive)
IGROV-1
  GI50: 13.5 µM (inactive)
K562
  GI50: 15.7 µM (inactive)
KM12
  GI50: 11.4 µM (inactive)
LOX IMVI
  GI50: 3.14 µM (inactive)
LXFL 529
  GI50: 14.3 µM (inactive)
M14
  GI50: 8.99 µM (inactive)
M19-MEL
  GI50: 19.2 µM (inactive)
MOLT-4
  GI50: 1.95 µM (inactive)
Malme-3M
  GI50: 10.5 µM (inactive)
NCI-H522
  GI50: 16.6 µM (inactive)
OVCAR-3
  GI50: 10.4 µM (inactive)
OVCAR-4
  GI50: 15.5 µM (inactive)
RPMI-8226
  GI50: 10.9 µM (inactive)
SF-268
  GI50: 24.9 µM (inactive)
SK-MEL-2
  GI50: 11.9 µM (inactive)
SK-OV-3
  GI50: 58.1 µM (inactive)
SN12C
  GI50: 14.1 µM (inactive)
SNB-75
  GI50: 26.1 µM (inactive)
SR
  GI50: 3.87 µM (inactive)
SW-620
  GI50: 18.6 µM (inactive)
UACC-62
  GI50: > 10 µM (inactive)
XF498
  GI50: 6.56 µM (inactive)

## Cc1cc(C(=O)N2CCN(Cc3ccccc3)CC2)c(C)o1
786-0
  GI50: > 100 µM (inactive)
A498
  GI50: > 100 µM (inactive)
A549
  GI50: > 100 µM (inactive)
ACHN
  GI50: > 100 µM (inactive)
CAKI-1
  GI50: > 100 µM (inactive)
CCRF-CEM
  GI50: > 100 µM (inactive)
DLD-1
  GI50: > 100 µM (inactive)
DMS-114
  GI50: > 100 µM (inactive)
EKVX
  GI50: > 100 µM (inactive)
HCC 2998
  GI50: > 100 µM (inactive)
HCT-116
  GI50: > 100 µM (inactive)
HCT-15
  GI50: > 100 µM
HL-60
  GI50: 25.4 µM (inactive)
HOP-18
  GI50: > 100 µM (inactive)
HOP-62
  GI50: > 100 µM (inactive)
HOP-92
  GI50: > 100 µM (inactive)
HT-29
  GI50: > 100 µM (inactive)
IGROV-1
  GI50: > 100 µM (inactive)
K562
  GI50: > 100 µM (inactive)
KM-20L2
  GI50: > 100 µM (inactive)
KM12
  GI50: > 100 µM (inactive)
LOX IMVI
  GI50: > 100 µM (inactive)
LXFL 529
  GI50: > 100 µM (inactive)
M14
  GI50: > 100 µM (inactive)
M19-MEL
  GI50: > 100 µM (inactive)
MOLT-4
  GI50: > 100 µM (inactive)
NCI-H23
  GI50: > 100 µM (inactive)
NCI-H460
  GI50: > 100 µM (inactive)
NCI-H522
  GI50: > 100 µM (inactive)
OVCAR-3
  GI50: > 100 µM (inactive)
OVCAR-4
  GI50: > 100 µM (inactive)
OVCAR-5
  GI50: > 100 µM (inactive)
OVCAR-8
  GI50: > 100 µM (inactive)
RPMI-8226
  GI50: > 100 µM (inactive)
SF-268
  GI50: > 100 µM (inactive)
SF-295
  GI50: > 100 µM (inactive)
SF-539
  GI50: > 100 µM (inactive)
SK-MEL-28
  GI50: > 100 µM (inactive)
SK-MEL-5
  GI50: > 100 µM (inactive)
SK-OV-3
  GI50: > 100 µM (inactive)
SN12C
  GI50: > 100 µM (inactive)
SNB-19
  GI50: > 100 µM (inactive)
SNB-75
  GI50: > 100 µM (inactive)
SNB-78
  GI50: > 100 µM (inactive)
SR
  GI50: > 100 µM (inactive)
SW-620
  GI50: > 100 µM (inactive)
TK-10
  GI50: > 100 µM (inactive)
U-251
  GI50: > 100 µM (inactive)
UACC-257
  GI50: > 100 µM (inactive)
UACC-62
  GI50: > 100 µM (inactive)
UO-31
  GI50: > 100 µM (inactive)
XF498
  GI50: > 100 µM (inactive)

## NC(=S)NNc1c([N+](=O)[O-])cnn(-c2ccccc2)c1=O
786-0
  GI50: 20.3 µM (inactive)
A549
  GI50: 23 µM (inactive)
ACHN
  GI50: 18.7 µM (inactive)
CAKI-1
  GI50: 19.6 µM (inactive)
COLO 205
  GI50: 13.1 µM (inactive)
DLD-1
  GI50: 14.4 µM (inactive)
DMS-114
  GI50: 17.3 µM (inactive)
DMS-273
  GI50: 18.3 µM (inactive)
HCC 2998
  GI50: 18.7 µM (inactive)
HCT-116
  GI50: 10.2 µM (inactive)
HCT-15
  GI50: 17.3 µM
HL-60
  GI50: 4.62 µM (inactive)
HOP-62
  GI50: 19.2 µM (inactive)
HOP-92
  GI50: 19.9 µM (inactive)
HT-29
  GI50: 18 µM (inactive)
IGROV-1
  GI50: 19.1 µM (inactive)
K562
  GI50: 4.36 µM (inactive)
KM-20L2
  GI50: 15.9 µM (inactive)
KM12
  GI50: 14.7 µM (inactive)
LOX IMVI
  GI50: 10.3 µM (inactive)
LXFL 529
  GI50: 9.02 µM (inactive)
M14
  GI50: 15 µM (inactive)
M19-MEL
  GI50: 13.2 µM (inactive)
MOLT-4
  GI50: 12.6 µM (inactive)
Malme-3M
  GI50: 19.2 µM (inactive)
NCI-H226
  GI50: 19.1 µM (inactive)
NCI-H23
  GI50: 19 µM (inactive)
NCI-H460
  GI50: 17.9 µM (inactive)
NCI-H522
  GI50: 18.7 µM (inactive)
OVCAR-3
  GI50: 17.6 µM (inactive)
OVCAR-4
  GI50: 17.4 µM (inactive)
OVCAR-5
  GI50: 18.4 µM (inactive)
OVCAR-8
  GI50: 14.5 µM (inactive)
RPMI-8226
  GI50: 20.7 µM (inactive)
RXF 393
  GI50: 18.5 µM (inactive)
SF-268
  GI50: 21.1 µM (inactive)
SF-295
  GI50: 15.1 µM (inactive)
SF-539
  GI50: 18.8 µM (inactive)
SK-MEL-28
  GI50: 17 µM (inactive)
SK-MEL-5
  GI50: 18.7 µM (inactive)
SK-OV-3
  GI50: 21.6 µM (inactive)
SN12C
  GI50: 17.1 µM (inactive)
SNB-19
  GI50: 19 µM (inactive)
SNB-75
  GI50: 19.4 µM (inactive)
SNB-78
  GI50: 23.3 µM (inactive)
SR
  GI50: 4.05 µM (inactive)
SW-620
  GI50: 13.1 µM (inactive)
TK-10
  GI50: 24 µM (inactive)
U-251
  GI50: 16.9 µM (inactive)
UACC-257
  GI50: 22.9 µM (inactive)
UACC-62
  GI50: 12.1 µM (inactive)
UO-31
  GI50: 23.4 µM (inactive)
XF498
  GI50: 18.7 µM (inactive)

## Brc1ccc(C2CC(c3cccc4ccccc34)=Nc3ccccc3S2)cc1 (stereo not drawn)
A498
  GI50: > 100 µM (inactive)
A549
  GI50: > 100 µM (inactive)
ACHN
  GI50: > 100 µM (inactive)
CAKI-1
  GI50: > 100 µM (inactive)
CCRF-CEM
  GI50: 29 µM (inactive)
COLO 205
  GI50: > 100 µM (inactive)
DLD-1
  GI50: 51.8 µM (inactive)
DMS-273
  GI50: 80 µM (inactive)
EKVX
  GI50: 37.1 µM (inactive)
HCC 2998
  GI50: 30.4 µM (inactive)
HCT-116
  GI50: 31.3 µM (inactive)
HCT-15
  GI50: 35.3 µM
HL-60
  GI50: 26.4 µM (inactive)
HOP-62
  GI50: > 100 µM (inactive)
HOP-92
  GI50: > 100 µM (inactive)
HT-29
  GI50: 46.7 µM (inactive)
IGROV-1
  GI50: > 100 µM (inactive)
K562
  GI50: 26.2 µM (inactive)
KM-20L2
  GI50: 96.8 µM (inactive)
KM12
  GI50: 70.5 µM (inactive)
LOX IMVI
  GI50: 44.8 µM (inactive)
LXFL 529
  GI50: > 100 µM (inactive)
M14
  GI50: > 100 µM (inactive)
M19-MEL
  GI50: 40.2 µM (inactive)
MOLT-4
  GI50: 23.5 µM (inactive)
NCI-H226
  GI50: > 100 µM (inactive)
NCI-H23
  GI50: 86.5 µM (inactive)
NCI-H460
  GI50: > 100 µM (inactive)
NCI-H522
  GI50: 22.5 µM (inactive)
OVCAR-4
  GI50: 44.6 µM (inactive)
OVCAR-5
  GI50: > 100 µM (inactive)
OVCAR-8
  GI50: > 100 µM (inactive)
RPMI-8226
  GI50: 10.9 µM (inactive)
RXF 393
  GI50: > 100 µM (inactive)
SF-268
  GI50: > 100 µM (inactive)
SF-295
  GI50: 37.3 µM (inactive)
SF-539
  GI50: > 100 µM (inactive)
SK-MEL-28
  GI50: > 100 µM (inactive)
SK-MEL-2
  GI50: > 100 µM (inactive)
SK-MEL-5
  GI50: > 100 µM (inactive)
SK-OV-3
  GI50: > 100 µM (inactive)
SN12C
  GI50: > 100 µM (inactive)
SNB-19
  GI50: > 100 µM (inactive)
SNB-75
  GI50: > 100 µM (inactive)
SNB-78
  GI50: 82 µM (inactive)
SR
  GI50: 27.5 µM (inactive)
SW-620
  GI50: 16.7 µM (inactive)
TK-10
  GI50: > 100 µM (inactive)
U-251
  GI50: 30.2 µM (inactive)
UACC-257
  GI50: > 100 µM (inactive)
UACC-62
  GI50: 71.9 µM (inactive)
UO-31
  GI50: 54.3 µM (inactive)
XF498
  GI50: > 100 µM (inactive)
